In patent US8791158B2, “Methods of treating meibomian gland dysfunction” (GTX, Inc., priority 2010, dated 2014):

Key:
[1] = test system: Meibomian gland secretions of rabbits; conditions: cited from earlier work
[2] = test system: acute, orchiectomized (ORX) rabbit model; assay: Tear fatty acid composition (palmitate:stearate ratio) after Compound 2 or TP, Example 3; assay type: in vivo; conditions: ORX rabbits
Excerpt: The goal of this study was to compare the effect of Compound 2 to testosterone propionate (TP) on tear composition in an acute, orchiectomized (ORX) rabbit model.
Fifteen New Zealand white rabbits weighing approximately 3 lbs were allowed to acclimate for 4 weeks before the start of the study. Animals were weighed on day 0 of the study, randomized according to body weight and allotted to the following dose groups:
Pre-dose tear and blood samples were collected. Animals from groups 2-5 were to premedicated with glycopyrrolate (0.02 mg/kg) and then anesthesia was induced with a combination of ketamine (15 mg/kg): medetomidine (0.25 mg/kg).
Anesthesia was maintained with isoflurane (1 liter/hr). Orchiectomy was performed using a scrotal incision. Animals were revived from anesthesia using atipamezole (1 mg/kg) SQ. Analgesia was provided with buprenorphine (0.05 mg/kg) Immediately after the animals had recovered from anesthesia, they received their first dose with the appropriate test articles as indicated above.
Drug dosing was done once daily for 14 days. Blood was collected at 60 minutes post administration of the last dose of drug and plasma separated for HPLC analysis of parent drug concentrations.
Tears were collected using Schirmer tear strips (Alcon, Tex.) on day 0 before surgery, 24 hours after the last administration of drug (day 15) and also at 42 days (6 weeks after start of study). The tears were stored at −80° C. prior to lipid analysis.
Lipids were hydrolyzed, extracted from the Schirmer strips, derivatized, and subjected to gas chromatography with flame ionization detector (GCFID) to evaluate the lipid composition.
The samples were evaluated for the presence of 28 saturated and unsaturated fatty acids that included methyl caprate (C10:0), methyl laurate (C12:0), methyl 11-dodecenoate (C12:1), methyl myristate (C14:0), methyl myristoleate (C14:1), methyl palmitate (C16:0), methyl palmitoleate (C16:1), methyl stearate (C18:0), methyl oleate (C18:1), methyl vaccenate (C18:1), methyl linoleate (C18:2), methyl gamma linoleate (C18:3), methyl linoleate (C18:3), methyl arachidate (C20:0), methyl 11-eicosenoate (C20:1), methyl 11,14 eicosadinoate (C20:2), methyl 8,11,14 eicosatrienoate (C20:3), methyl eicosapentaenoate (C20:5), methyl behenate (C22:0), methyl erucate (C22:1), methyl 13,16 docosaenoate (C22:2), methyl docosatetraenoate (C22:4), methyl docosapentaenoate (C22:5), methyl docosahexaenoate (C22:6), methyl lignocerate (C24:0), and methyl nervonate (C24:1).
The area under the curve for each individual peak was determined using GC ChemStation software. […] These samples were then washed with a saturated solution of NaCl+0.1% formic acid (FA). […] These samples were all in the predose tear group. Two more samples from the predose group and one sample from Vehicle Intact treated group had small but clear and well to separated peaks that were included in the analysis.
To normalize for the tear content, the lipid composition was expressed as a ratio of the lipid that was most affected by castration (palmitate) to one which remained relatively constant (stearate). Blood was also collected on day 15 (24 hours after last drug administration) of the study, plasma separated and analyzed for Compound 2.
The last dose of drug or vehicle was administered on day 15 of the study Animals were left untreated for 4 weeks (washout period) before tear samples were collected again on Schirmer tear strips and analyzed as indicated above.

In the case of `C[C@]12CC[C@H]3[C@@H](CCC4=CC(=O)CC[C@@H]43)[C@@H]1CC[C@@H]2O` [19-nortestosterone], the “Effect on fatty acid profile in total and neutral lipid fractions of Meibomian gland secretions” value [1] is listed as “modulated the fatty acid profile”.

For `CCC(=O)O[C@H]1CC[C@H]2[C@@H]3CCC4=CC(=O)CC[C@]4(C)[C@H]3CC[C@]12C` [TP, testosterone propionate, reference compound], the “Increase of tear palmitate:stearate ratio relative to intact animals” value ([2]; 2.5 mg/kg, 14 days) was “two times that of intact animals” and the “Tear palmitate:stearate ratio after 4 week washout” value ([2]; SQ 2.5 mg/kg for two weeks, then untreated 4 weeks) was 1.67±0.17.
